Data as given in patent US9447028B2, “Therapeutic aryl-amido-aryl compounds and their use” (King's College London, priority 2009, dated 2016).

Experiments:
Assay type in all cases: cell-based
RARα = target: T1, RARα (Homo sapiens, UniProt P10276); experiment: Transactivation assay for RAR alpha (gal4-RAR fusion, luciferase reporter, COS-7 cells); settings: for RARα/RARβ ratio (*): fold-selectivity for RARα over RARβ; for RARα activity ratio: ratio of test compound EC50 to that of atRA on the same plate; for Improvement (RARα activity ratio) / Improvement (RARα/RARβ ratio): compared with XXX-03
T1 construct: gal4 (fusion partner); expressed in transfected cells; host or cells: COS-7
T1 sequence (P10276 183-417 limits assumed): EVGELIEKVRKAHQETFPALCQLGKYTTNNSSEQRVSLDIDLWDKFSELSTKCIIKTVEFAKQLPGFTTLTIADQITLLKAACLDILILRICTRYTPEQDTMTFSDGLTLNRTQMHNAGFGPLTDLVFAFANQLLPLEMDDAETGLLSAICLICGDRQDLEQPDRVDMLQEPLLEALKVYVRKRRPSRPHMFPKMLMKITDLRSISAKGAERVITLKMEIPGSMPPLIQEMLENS
Procedure: (§1) Transcriptional transactivation assays were performed with gal4 fusion receptor constructs, created using each of the RAR ligand binding domains, co-transfected with the pFR-luc (Stratagene™) reporter construct in COS-7 cells.
(§2) Briefly, on day 1, 96 well plates were seeded with 8000 cells per well then left to recover overnight. On day 2, the cells were co-transfected with 100 ng of reporter plasmid and 10 ng of the appropriate receptor plasmid per well using lipofectamine (Invitrogen™). On day 3, the lipofectamine containing media was replaced by a DMEM without phenol red, followed by the addition of test compound dissolved in 1 μL of DMSO to each well's 100 μL total volume. Finally, on day 4, the cells were lysed and their luciferase substrate was provided by the BrightGlo™ reagent (Promega™), the plates were then read on the MicroBeta TriLux™ (Perkin Elmer™).
(§3) Where replicate data has been generated, the data are quoted as a ratio of the mean EC50 from the separate experiments.

RARβ = target: T2, RARβ (Homo sapiens, UniProt P10826); experiment: Transactivation assay for RAR beta (gal4-RAR fusion, luciferase reporter, COS-7 cells); settings: ratio of test compound EC50 to that of atRA; inactive = no agonist action at the highest concentration tested
T2 construct: gal4 (fusion partner); expressed in transfected cells; host or cells: COS-7
T2 sequence (P10826 183-417 limits assumed): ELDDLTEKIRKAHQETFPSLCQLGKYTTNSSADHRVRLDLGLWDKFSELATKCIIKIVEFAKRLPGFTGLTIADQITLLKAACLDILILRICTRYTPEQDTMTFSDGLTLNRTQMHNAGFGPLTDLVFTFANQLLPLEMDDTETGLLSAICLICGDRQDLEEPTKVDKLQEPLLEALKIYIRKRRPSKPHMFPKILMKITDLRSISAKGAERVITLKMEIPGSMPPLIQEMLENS
Procedure: as §1, §2, §3

RARγ = target: T3, RARγ (Homo sapiens, UniProt P13631); experiment: Transactivation assay for RAR gamma (gal4-RAR fusion, luciferase reporter, COS-7 cells); settings: ratio of test compound EC50 to that of atRA; inactive = no agonist action at the highest concentration tested
T3 construct: gal4 (fusion partner); expressed in transfected cells; host or cells: COS-7
T3 sequence (P13631 185-419 limits assumed): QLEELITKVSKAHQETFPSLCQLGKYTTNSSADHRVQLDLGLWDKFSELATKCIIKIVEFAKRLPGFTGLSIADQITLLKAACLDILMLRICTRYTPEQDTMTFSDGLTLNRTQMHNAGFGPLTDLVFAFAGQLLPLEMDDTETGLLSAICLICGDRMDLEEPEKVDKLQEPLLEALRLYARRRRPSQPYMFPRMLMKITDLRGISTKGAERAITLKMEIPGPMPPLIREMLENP
Procedure: as §1, §2, §3

Row | RARα/RARβ ratio (*) (RARα) | RARα activity ratio (RARα) | RARβ activity ratio (RARβ) | RARγ activity ratio (RARγ) | Improvement (RARα activity ratio) (RARα) | Improvement (RARα/RARβ ratio) (RARα) | increase in RARα activity (RARα; compared with XXX-02) [fold] | SMILES
1 | 58 | 2.6 | 150 | 25172 |  |  |  | CCOc1cc(C(=O)Nc2ccc(C(=O)O)c(C)c2)cc(OC(CC)CC)c1Cl [AAA-115, 4-(4-Chloro-3-ethoxy-5-(pentan-3-yloxy)benzamido)-2-methylbenzoic acid]
2 | 609 | 6.7 | 4082 | 117857 |  |  |  | COc1c(Cl)cc(C(=O)Nc2ccc(C(=O)O)c(F)c2)cc1OC(C)C [AAA-077, 4-(3-Chloro-5-isopropoxy-4-methoxybenzamido)-2-fluorobenzoic acid]
3 | 36 | 0.59 | 21 | 51 |  |  |  | Cc1cc(NC(=O)c2cc(Cl)c(OC3CCCC3)c(Cl)c2)ccc1C(=O)O [AAA-054, 4-(3,5-Dichloro-4-(cyclopentyloxy)benzamido)-2-methylbenzoic acid]
4 | 135 | 1.6 | 216 | 75000 |  |  |  | CC(C)Oc1cc(C(=O)Nc2ccc(C(=O)O)c(O)c2)cc(Cl)c1OC(C)C [AAA-091, 4-(3-Chloro-4,5-diisopropoxybenzamido)-2-hydroxybenzoic acid]
5 |  |  | 1920 | inactive | ~3.8-fold | ~11-fold |  | CCOc1c(Cl)cc(C(=O)Nc2ccc(C(=O)O)cc2)cc1Cl [AAA-029, 4-(3,5-Dichloro-4-ethoxy-benzoylamino)-benzoic acid]
6 | >50 | 448 | inactive | inactive |  |  | 5 | CCOc1c(Cl)cc(C(=O)Nc2cc(F)c(C(=O)O)c(F)c2)cc1C(F)(F)F [AAA-022, 4-(3-Chloro-4-ethoxy-5-(trifluoromethyl)benzamido)-2,6-difluorobenzoic acid]
7 | 2 | 11 | 22 | 270 |  |  |  | O=C(O)c1ccc(NC(=O)c2cc(Cl)c(OC3CCCCC3)c(OC3CCCCC3)c2)cc1 [AAA-047, 4-(3-Chloro-4,5-bis(cyclohexyloxy)benzamido)benzoic acid]
8 |  |  | 9525 | 5850 | ~3.1-fold | ~46-fold |  | COc1c(Cl)cc(C(=O)Nc2ccc(C(=O)O)cc2)cc1Cl [AAA-030, 4-(3,5-Dichloro-4-methoxy-benzoylamino)-benzoic acid]
9 | 250 | 5.0 | 1250 | 367000 |  |  |  | CCOc1c(Cl)cc(C(=O)Nc2ccc(C(=O)O)c(O)c2)cc1OCC1CC1 [AAA-090, 4-(3-Chloro-5-(cyclopropylmethoxy)-4-ethoxybenzamido)-2-hydroxybenzoic acid]
10 | 44 | 5.4 | 238 | 31340 |  |  |  | COc1c(Cl)cc(C(=O)Nc2ccc(C(=O)O)c(C)c2)cc1C(F)(F)F [AAA-041, 4-(3-Chloro-4-methoxy-5-(trifluoromethyl)benzamido)-2-methylbenzoic acid]
11 | 84 | 0.25 | 21 | 1923 |  |  |  | Cc1cc(NC(=O)c2cc(Br)c(OC(C)C)c(Br)c2)ccc1C(=O)O [AAA-052, 4-(3,5-Dibromo-4-isopropoxybenzamido)-2-methylbenzoic acid]
12 | 2852 | 0.23 | 656 | 20000 |  |  |  | O=C(Nc1ccc(C(=O)O)c(O)c1)c1cc(Cl)c(OC2CCC2)c(OC2CCC2)c1 [AAA-094, 4-(3-Chloro-4,5-di(cyclobutyloxy)benzamido)-2-hydroxybenzoic acid]
13 | 173.0 | 370 | 64000 | inactive |  |  |  | CCOc1cc(C(=O)Nc2ccc(C(=O)O)cc2)cc(OCC)c1OCC [AAA-028, 4-(3,4,5-triethoxy-benzoylamino)-benzoic acid]
14 | 10 | 9 | 90 | 4390 |  |  |  | COc1cc(C(=O)Nc2ccc(C(=O)O)cc2)cc(Cl)c1OC(C)C [AAA-083, 4-(3-Chloro-4-isopropoxy-5-methoxybenzamido)benzoic acid]
15 | 231 | 3.9 | 900 | 11093 |  |  |  | Cc1cc(NC(=O)c2cc(Cl)c(Cl)c(OC(C)C)c2)ccc1C(=O)O [AAA-113, 4-(3,4-Dichloro-5-isopropoxybenzamido)-2-methylbenzoic acid]
16 | 58.0 | 50 | 2900 | inactive |  |  |  | COC(=O)c1ccc(NC(=O)c2cc(Cl)c(OC3CCCC3)c(Cl)c2)cc1 [AAA-002, Methyl 4-(3,5-dichloro-4-(cyclopentyloxy)benzamido)benzoate]
17 | 241 | 4.7 | 1134 | 2394 |  |  |  | COc1c(Cl)cc(C(=O)Nc2ccc(C(=O)O)c(C)c2)cc1OC(C)C [AAA-075, 4-(3-Chloro-5-isopropoxy-4-methoxybenzamido)-2-methylbenzoic acid]
18 | 68 | 4 | 273 | 29730 |  |  |  | Cc1cc(NC(=O)c2cc(OC(C)C)c(Cl)c(OC(C)C)c2)ccc1C(=O)O [AAA-117, 4-(4-Chloro-3,5-diisopropoxybenzamido)-2-methylbenzoic acid]
19 | 392 | 1.3 | 510 | 2647 |  |  |  | CCOc1c(Cl)cc(C(=O)Nc2ccc(C(=O)O)cc2)cc1OCC1CC1 [AAA-089, 4-(3-Chloro-5-(cyclopropylmethoxy)-4-ethoxybenzamido)benzoic acid]
20 | 161 | 9.0 | 1453 | >27000 |  |  |  | CCOc1c(Cl)cc(C(=O)Nc2ccc(C(=O)O)c(O)c2)cc1OC(C)C [AAA-081, 4-(3-Chloro-4-ethoxy-5-isopropoxybenzamido)-2-hydroxybenzoic acid]
21 | 71 | 10 | 712 | 50000 |  |  |  | Cc1cc(NC(=O)c2cc(OC(C)C)c(Br)c(OC(C)C)c2)ccc1C(=O)O [AAA-111, 4-(4-Bromo-3,5-diisopropoxybenzamido)-2-methylbenzoic acid]
22 | 22 | 76 | 1686 | 6429 |  |  |  | COc1c(OC(C)C)cc(C(=O)Nc2ccc(C(=O)O)c(C)c2)cc1OC(C)C [AAA-063, 4-(3,5-Diisopropoxy-4-methoxybenzamido)-2-methylbenzoic acid]
23 |  | 1.6 | 318 | 17460 |  |  |  | CCOc1c(Cl)cc(C(=O)Nc2ccc(C(=O)O)c(C)c2)cc1OC(C)C [AAA-080, 4-(3-Chloro-4-ethoxy-5-isopropoxybenzamido)-2-methylbenzoic acid]

Row | SMILES | RARα/RARβ ratio (*) (RARα) | RARα activity ratio (RARα) | RARβ activity ratio (RARβ) | RARγ activity ratio (RARγ) | Improvement (RARα activity ratio) (RARα) | Improvement (RARα/RARβ ratio) (RARα) | increase in RARα activity (RARα; compared with XXX-02) [fold]
24 | CC(C)(C)Oc1cc(C(=O)Nc2ccc(C(=O)O)cc2)cc(OC(C)(C)C)c1OC(C)(C)C [AAA-060, 4-(3,4,5-Tri-tert-butoxybenzamido)benzoic acid] | 50 | 45 | 2267 | 30 |  |  | 
25 | COc1c(Cl)cc(C(=O)Nc2ccc(C(=O)O)c(C)c2)cc1OC1CCC1 [AAA-099, 4-(3-Chloro-5-cyclobutoxy-4-methoxybenzamido)-2-methylbenzoic acid] | 59 | 11 | 655 | 89 |  |  | 
